Data set [1] concerns AIDS-related Kaposi's sarcoma. Particulars: cited from earlier work.
For data set [2], the system named is HIV. The following applies: cited from earlier work.
The conditions of data set [3]: cited from earlier work; for adverse effects, toxicity, tolerability: clinical.
Data set [4] relates to AIDS / AIDS-related complex (ARC). The following applies: human, in vivo; cited from earlier work.
The conditions of data set [5]: in vivo; cited from earlier work.
In data set [6] the test system is reverse transcriptase in several retroviruses. The following applies: in vitro; cited from earlier work.
In data set [7] the test system is Mycobacterium aviumintracellulare. Particulars: AIDS patients; cited from earlier work.
Data set [8] concerns HIV reverse transcriptase. Particulars: cited from earlier work.
In data set [9] the test system is Candida albicans. Nature of the data set: In vivo protection from Candida albicans infection in cyclophosphamide-treated mice. Particulars: CA, CY +. More on the design: species or system CF1 female mice. How it is done: (§1) Groups of 15-20 CF1 female mice (Charles River Breeding, Cambridge, Mass.) weighing 22-28 gm were injected intraperitoneally (i.p.) with cyclophosphamide (Cytoxan; CY) at 250 mg per kg body weight. One to two hours later they were typically injected again with the test material by the route specified. Four days later, the mice were divided into groups of five, each of which were injected i.p. with a different dilution of a suspension of Pseudomonas aeruginosa (Immunotype 1). The number of survivors was determined periodically and an estimate was made of the number of CFU of Pseudomonas organisms necessary to cause 50% lethality by the cumulative method of L. J. Reed and H. Muench (Am. J. Hygiene 27 (1938) 493-497). A protective index (P.I.) was defined as the LD50 for the mice receiving cyclophosphamide and the test compound divided by the LD50 for the mice receiving cyclophosphamide alone. All control mice were injected with aqueous vehicle in the same route and schedule as the test animals.
(§2) MATERIALS. All compounds for dosing were suspended in a sterile medium referred to as "aqueous vehicle" which contains 0.9% sodium chloride, 0.5% carboxymethyl cellulose, 0.4% Tween 80, and 0.9% benzyl alcohol unless otherwise stated. Test materials were evaluated via subcutaneous (s.c.), i.p., intramuscular (i.m.), orally (p.o.). and intravenous (i.v.) routes of administration. […]
INFECTION OF ANIMALS. […] Candida albicans, however, was administrated i.v. Bacteria cultures were harvested in the log phase, washed with phosphate buffered saline (PBS, and resuspended in PBS containing 10% glycerol for freezing at -70° C. in 1 ml aliquots. The number of […] (cfu's) was determined before and after freezing. Frozen cultures were routinely thawed and diluted in sterile PBS just prior to inoculation. Viable cell counts were routinely done on thawed cultures the day of challenge to determine the number of cfu's. Candida albicans was stored in distilled water at room temperature. Viable cell counts were determined the day of testing. […]

Data set [10] relates to Klebsiella pheumoniae. Nature of the data set: In vivo protection from Klebsiella infection in cyclophosphamide-treated mice. Particulars: KP; CY +; 40 mg/kg. More on the design: species or system CF1 female mice. How it is done:
as §1, §2

Data set [11] has as its system Herpes Simplex Virus-1 (HSV1). Nature of the data set: Antiviral experiment in mice infected IP with Herpes Simplex Virus-1. The data set is classed as in vivo, ICR mice. Particulars: for Average Day of Death, Pre Treatment: HSV1 day 5; for Average Day of Death, Post Treatment: HSV1 prior to treatment. How it is done:
An antiviral experiment was conducted to compare treatment with 6-(5-Cholesten-3β-yloxy)hexyl 1-thio-β-D-mannopyranoside (Example 2) in mice infected IP with Herpes Simplex Virus-1 (HSV1) immediately before (post treatment) or after 5 days of treatment (pretreatment).
Ten mice (ICR, 20 gm, mixed sexes) were pretreated by SC injection of a 0.1 mL suspension of test compound twice a day for 4 days. On day 5, the mice were injected IP with 0.5 mL solution of HSV1 (Schloser, 10-5). The post treatment group was infected with HSV1 prior to administration of test compound. Day of death from time of infection with HSV1 was recorded for each mouse and average day of death per treatment group was calculated.

Data set [12] relates to Pseudomonas aeruginosa. Nature of the data set: Pseudomonas aeruginosa in vivo protection study in cyclophosphamide-treated mice. More on the design: species or system CF1 female mice. The following applies: for LD50 Actual: PA, CY +. The method, then: as §1, §2
(§3) INFECTION OF ANIMALS. All bacteria were inoculated i.p. to induce infection in the in vivo experiments. Candida albicans, however, was administrated i.v. Bacteria cultures were harvested in the log phase, washed with phosphate buffered saline (PBS, and resuspended in PBS containing 10% glycerol for freezing at -70° C. in 1 ml aliquots. The number of […] (cfu's) was determined before and after freezing. Frozen cultures were routinely thawed and diluted in sterile PBS just prior to inoculation. Viable cell counts were routinely done on thawed cultures the day of challenge to determine the number of cfu's. Candida albicans was stored in distilled water at room temperature. Viable cell counts were determined the day of testing.
(§4) The testing and results of 6-(5-cholesten-3β-yloxy)hexyl-1-thio-β-D-mannopyranoside (Example 2) against various organisms is shown in Table 2.

Data set [13] has as its system Staphylococcus aureus. Nature of the data set: In vivo protection from Staphylococcus aureus infection in cyclophosphamide-treated mice. The arrangement: species or system CF1 female mice. The following applies: SA, CY +. How it is done: as §1
MATERIALS. All compounds for dosing were suspended in a sterile medium referred to as "aqueous vehicle" which contains 0.9% sodium chloride, 0.5% carboxymethyl cellulose, 0.4% Tween 80, and 0.9% benzyl alcohol unless otherwise stated. Test materials were evaluated via subcutaneous (s.c.), i.p., intramuscular (i.m.), orally (p.o.). and intravenous (i.v.) routes of administration. The initial test dose was 40 mg per kg per mouse, with each active compound subsequently titrated below this level.
as §3, §4

For α-Interferon, the tumor regression entry in [1] is “induced tumor regression in some AIDS-related Kaposi's sarcoma cases”. Moreover, in [2], the “effect on HIV infectivity, growth or reproduction” value (“effect on HIV infectivity” for short) was “Checks the growth of HIV in vitro”.
Take `CC(C)(S)[C@@H](N)C(=O)O` [D-Penicillamine, 3-mercapto-D-valine]: the T cell levels result in [3] (13 AIDS patients with perpetually swollen glands) was “temporarily depressed T cell levels”. Also, the “effect on HIV infectivity” value in [2] was “Inhibits HIV reproduction in humans”. The “clinical effect in AIDS / ARC patients” value in [4] is reported as “suppressed the virus”.
Turning to `Cc1cn([C@H]2C[C@H](N=[N+]=[N-])[C@@H](CO)O2)c(=O)[nH]c1=O` [Azidothymidine, 3'-azido-3'-deoxythymidine], the “central nervous system penetration” value in data set [5] was “effectively penetrates central nervous system”. In addition, the “clinical effect in AIDS / ARC patients” value in data set [4] is reported as “First drug to show promise in prolonging lives of patients with AIDS or AIDS-related complex (ARC)”.
For the molecule `CC(C)(N1CC1C#N)N1CC1C(N)=O` (stereo not shown) [Azimexon], in [3], the “adverse effects, toxicity, tolerability” value was “only toxic effect was mild hemolysis”. In data set [4], the “clinical effect in AIDS / ARC patients” value was “improvements in symptoms and immune function in patients with ARC but not AIDS”.
On to “ammonium 21-tungsto-9-antimoniate [HPA-23]”, for which the “reverse transcriptase inhibition in retroviruses” value in [6] was “Inhibits reverse transcriptase in several retroviruses in vitro”. The “effect on HIV infectivity” value in data set [2] is listed as “some tendency to check the growth of HIV”. In data set [4], the “clinical effect in AIDS / ARC patients” value is “no therapeutic benefit has been documented in AIDS patients”.
Regarding `CC(=O)Nc1ccc(C(=O)O)cc1.CC(=O)Nc1ccc(C(=O)O)cc1.CC(=O)Nc1ccc(C(=O)O)cc1.CC(O)CN(C)C.CC(O)CN(C)C.CC(O)CN(C)C.O=c1[nH]cnc2c1ncn2[C@@H]1O[C@H](CO)[C@@H](O)[C@H]1O` [Inosine pranobex, p-Acetamidobenzoic acid salt of (1-dimethylamino-2-propanol:inosinate complex 3:3:1 molar ratio)], the “clinical effect in AIDS / ARC patients” value in [4] was “improve immune function in ARC patients”.
As for `CO[C@H]1/C=C/O[C@@]2(C)Oc3c(C)c(O)c4c(c3C2=O)C2=NC3(CCN(CC(C)C)CC3)NC2=C(NC(=O)/C(C)=C\C=C\[C@H](C)[C@H](O)[C@@H](C)[C@@H](O)[C@@H](C)[C@H](OC(C)=O)[C@@H]1C)C4=O` [Ansamycin, rifabutin], the “efficacy in opportunistic infection” value in data set [7] is reported as “some efficacy”.
On to `Cc1ccc(C(=O)Nc2ccc(S(=O)(=O)O)c3cc(S(=O)(=O)O)cc(S(=O)(=O)O)c23)cc1NC(=O)c1cccc(NC(=O)Nc2cccc(C(=O)Nc3cc(C(=O)Nc4ccc(S(=O)(=O)O)c5cc(S(=O)(=O)O)cc(S(=O)(=O)O)c45)ccc3C)c2)c1` [Suramin], for which the “HIV reverse transcriptase inhibition” value in data set [8] is “Potent inhibitor of HIV reverse transcriptase”. The “clinical effect in AIDS / ARC patients” value in data set [4] is “little or no evidence of clinical improvement or immunologic recovery”.
Take `CC(C)CCC[C@@H](C)[C@H]1CC[C@H]2[C@@H]3CC=C4C[C@@H](OCCCCCCS[C@@H]5O[C@H](CO)[C@@H](O)[C@H](O)[C@@H]5O)CC[C@]4(C)[C@H]3CC[C@]12C` [Example 2, 6-(5-Cholesten-3β-yloxy)hexyl 1-thio-β-D-mannopyranoside]: the “LD50 Actual” value is recorded as 3.68 × 10^4 CFU in data set [9] (10 mg/kg); 5.2 × 10^4 CFU in [9] (20 mg/kg); 7.88 × 10^4 CFU in [9] (40 mg/kg); 4.73 × 10^7 CFU in [10]; 3.2 × 10^4 CFU in [12] (10 mg/kg); 3.2 × 10^5 CFU in data set [12] (20 mg/kg). The “LD50 Actual” value in data set [12] (40 mg/kg) was 1.22 × 10^6 CFU; in data set [12] (80 mg/kg), 2.59 × 10^6 CFU; in data set [13] (5 mg/kg), 3.38 × 10^5 CFU; in [13] (10 mg/kg) it was 1.04 × 10^6 CFU; in data set [13] (20 mg/kg) it was 2.38 × 10^6 CFU; in [13] (40 mg/kg), 1.58 × 10^7 CFU. Further, the “P.I. (log)” value in [10] came out at 1.12 log. Moreover, the “Average Day of Death, Pre Treatment” value in [11] (0.8 mg/kg SC twice a day for 4 days, P 0.797) worked out at 8.6 days; in data set [11] (3.1 mg/kg SC twice a day for 4 days, P 0.348), 7.1 days; in [11] (12.5 mg/kg SC twice a day for 4 days, P 0.725), 8.0 days; in data set [11] (50 mg/kg SC twice a day for 4 days, P 0.003), 11.0 days. Besides, the “Average Day of Death, Post Treatment” value in [11] (0.8 mg/kg SC twice a day) amounted to 9.1 days; in data set [11] (3.1 mg/kg SC twice a day), 6.3 days; in [11] (12.5 mg/kg SC twice a day) it was 7.5 days; in data set [11] (50 mg/kg SC twice a day), 6.4 days. The “protection from fatal viral infection over placebo” value in data set [11] (50 mg/kg twice a day for four days, by day of death) was “statistically enhanced protection from fatal viral infection over placebo treated animals”. In data set [11] (pretreated mice versus post treatment group), the “protection, pretreated over post treatment group” value was “statistically enhanced protection over the post treatment group”.
Turning to “6-(20S-Amino-pregn-5-en-3β-yloxy)hexyl 1-thio-β-D-mannopyranoside [Example 14]”, in [12] (Table 3, Pseudomonas aeruginosa, cyclophosphamide-treated mice, dose not given), the “Protective Index (log)” value is recorded as 4.37 log.
Take `NC(=O)c1ncn([C@@H]2O[C@H](CO)[C@@H](O)[C@H]2O)n1` [Ribavirin, 1-β-D-ribofuranosyl-1,2,4-triazole-3-carboxamide]: in data set [4], the “clinical effect in AIDS / ARC patients” value was “inhibited viral replication and improved immune function in AIDS patients”.
With `O=C(O)P(=O)(O)O` [Foscarnet, trisodium phosphonoformate], the “HIV reverse transcriptase inhibition” value in data set [8] is reported as “Inhibits HIV reverse transcriptase activity in vitro at levels pharmacologically acceptable in vivo”. In data set [3], the “adverse effects, toxicity, tolerability” value was “serious side effects”.

(Values after patent US4942154A, “Steroidal glycolipids as host resistance stimulators against viral infection” (priority 1987, dated 1990).)
